Reference: ChEMBL document CHEMBL1201862, “PubChem BioAssay data set” (2004)
Active and inactive are the calls of the source.

Tests used:
[1] = biological target: T1, Type-1 angiotensin II receptor (Homo sapiens, UniProt P30556); experiment: antagonism of angiotensin II type 1 receptor – cell-based, uHTS hits, selectivity assay for APJ receptor antagonist project, dose response (AID 463214); type: functional;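 note: antagonist potency against angiotensin II stimulated AT1 response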
T1 sequence (P30556 whole entry): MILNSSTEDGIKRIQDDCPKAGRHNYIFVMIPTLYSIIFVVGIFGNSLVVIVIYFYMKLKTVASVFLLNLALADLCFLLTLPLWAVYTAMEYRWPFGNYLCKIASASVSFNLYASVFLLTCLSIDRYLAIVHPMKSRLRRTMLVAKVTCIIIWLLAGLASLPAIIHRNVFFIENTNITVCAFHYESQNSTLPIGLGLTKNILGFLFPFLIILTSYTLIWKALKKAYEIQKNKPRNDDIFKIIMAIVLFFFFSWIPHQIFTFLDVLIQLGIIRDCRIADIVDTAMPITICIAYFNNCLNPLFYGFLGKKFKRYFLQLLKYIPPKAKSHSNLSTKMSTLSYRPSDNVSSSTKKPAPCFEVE

[2] = NIH3T3 cell viability loss – ATP luminescence, mouse fibroblasts, counter-screen, dose response (AID 2010); type: functional, cell-based;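 note: cells exposed to compound for about 90 hours before reading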
Beta-galactosidase = Beta-galactosidase (Escherichia coli, UniProt Q8VNN2); experiment: PubChem AID 485352; type: functional
Beta-galactosidase, sequence (Q8VNN2 whole entry): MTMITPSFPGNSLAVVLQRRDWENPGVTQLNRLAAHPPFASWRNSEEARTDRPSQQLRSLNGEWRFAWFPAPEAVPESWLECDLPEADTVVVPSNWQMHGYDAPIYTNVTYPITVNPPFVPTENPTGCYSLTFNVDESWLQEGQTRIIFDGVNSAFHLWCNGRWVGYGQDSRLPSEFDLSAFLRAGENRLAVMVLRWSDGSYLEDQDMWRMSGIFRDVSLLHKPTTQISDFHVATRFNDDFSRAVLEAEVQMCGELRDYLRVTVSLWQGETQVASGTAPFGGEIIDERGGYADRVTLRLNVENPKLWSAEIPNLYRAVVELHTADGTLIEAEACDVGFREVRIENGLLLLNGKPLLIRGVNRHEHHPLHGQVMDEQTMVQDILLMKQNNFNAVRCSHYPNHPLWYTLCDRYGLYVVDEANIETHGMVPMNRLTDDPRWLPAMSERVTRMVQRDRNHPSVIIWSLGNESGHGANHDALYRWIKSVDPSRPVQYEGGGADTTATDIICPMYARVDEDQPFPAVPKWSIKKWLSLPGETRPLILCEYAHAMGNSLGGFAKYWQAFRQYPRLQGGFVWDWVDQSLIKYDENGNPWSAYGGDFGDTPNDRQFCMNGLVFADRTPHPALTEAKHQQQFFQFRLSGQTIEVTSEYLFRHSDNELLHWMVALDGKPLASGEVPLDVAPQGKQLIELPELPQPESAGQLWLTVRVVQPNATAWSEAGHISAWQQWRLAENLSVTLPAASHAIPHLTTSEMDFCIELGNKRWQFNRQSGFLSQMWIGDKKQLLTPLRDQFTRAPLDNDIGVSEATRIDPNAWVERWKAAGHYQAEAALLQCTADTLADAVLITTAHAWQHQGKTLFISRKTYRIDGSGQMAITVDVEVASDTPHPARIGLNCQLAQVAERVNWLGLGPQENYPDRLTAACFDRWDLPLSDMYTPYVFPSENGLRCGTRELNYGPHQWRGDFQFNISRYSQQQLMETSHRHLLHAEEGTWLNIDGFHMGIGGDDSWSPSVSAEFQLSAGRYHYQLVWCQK

[3] = NIH-3T3 fibroblast cytotoxicity, dose response, cytotoxicity control, cell-based, fluorescence, Alamar Blue, secondary assay (AID 2327); type: functional;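 note: NIH-3T3 mouse fibroblasts cultured with fluconazole at 8 µg/mL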
[4] = fluconazole-exposed Candida albicans growth modulators – fluorescence, retest, confirmation (AID 2467); type: functional, cell-based
[5] = Trypanosoma cruzi growth suppression in host cells – NIH3T3 host cells, beta-gal luminescence, confirmation (AID 2044); type: functional, cell-based;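 note: intracellular parasites grown in NIH/3T3 mouse fibroblasts as host cells; luminescent beta-galactosidase reporter signal from transgenic T. cruzi replicating inside host cells; inhibitors lower the luminescence signal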
Melanocortin receptor 4 [6] = biological target: T2, Melanocortin receptor 4 (Homo sapiens, UniProt P32245); experiment: inhibitors of MC4R cAMP signaling – cell-based, TR-FRET, biased antagonists, dose response (AID 602298); type: functional;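 note: antagonist potency against agonist-stimulated cAMP production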
T2 sequence (P32245 whole entry): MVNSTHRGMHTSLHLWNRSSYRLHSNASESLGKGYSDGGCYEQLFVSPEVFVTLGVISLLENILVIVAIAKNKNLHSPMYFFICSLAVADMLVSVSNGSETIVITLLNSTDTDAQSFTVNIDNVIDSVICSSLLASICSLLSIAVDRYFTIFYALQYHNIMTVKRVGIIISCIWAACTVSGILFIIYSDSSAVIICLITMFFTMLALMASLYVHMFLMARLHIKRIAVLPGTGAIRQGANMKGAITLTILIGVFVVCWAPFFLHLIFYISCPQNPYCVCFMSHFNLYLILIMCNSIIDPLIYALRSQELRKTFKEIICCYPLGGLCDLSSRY

[7] = cAMP pathway inhibition in counterscreen cell line – TR-FRET cAMP detection, counter-screen for MC4R biased antagonist project, dose response (AID 602305); type: functional, cell-based;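 note: U2OS cells stimulated with forskolin near its EC80 as the cAMP inducer; potency is for inhibition of forskolin-stimulated cAMP signaling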
HEK293 = experiment: cells; type: functional, cell-based; conditions: Homo sapiens
[8] = biological target: T3, Nuclear receptor subfamily 0 group B member 1 (Homo sapiens, UniProt P51843); experiment: Luminescence-based cell-based high throughput dose response assay for inhibitors of the orphan nuclear receptor subfamily 0, group B, member 1 (DAX1; NR0B1). [Related pubchem assays (depositor defined):AID504766, AID504790]; type: functional
T3 sequence (P51843 whole entry): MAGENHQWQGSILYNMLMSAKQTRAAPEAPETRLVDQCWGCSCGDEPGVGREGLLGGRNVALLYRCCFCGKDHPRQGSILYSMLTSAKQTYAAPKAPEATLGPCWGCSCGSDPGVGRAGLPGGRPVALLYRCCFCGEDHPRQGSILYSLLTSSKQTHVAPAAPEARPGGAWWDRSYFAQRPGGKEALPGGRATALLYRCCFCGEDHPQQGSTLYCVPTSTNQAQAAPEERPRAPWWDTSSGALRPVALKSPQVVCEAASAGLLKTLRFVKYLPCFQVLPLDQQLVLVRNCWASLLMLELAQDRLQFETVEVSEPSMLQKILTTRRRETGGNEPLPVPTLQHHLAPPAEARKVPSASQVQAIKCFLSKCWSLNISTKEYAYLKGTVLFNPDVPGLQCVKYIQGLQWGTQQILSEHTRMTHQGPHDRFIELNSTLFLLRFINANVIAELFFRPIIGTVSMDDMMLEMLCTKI

[9] = viability of uninfected HEp-2 cells – cell-based, HTS, cytotoxicity control for RSV inhibitor project, dose response (AID 2410); type: functional; conditions: human respiratory syncytial virus
[10] = Luminescence Cell-Based Dose Response HTS to Identify Inhibitors of 5'UTR Stem-Loop Driven Prion Protein mRNA Translation in H4 Neuroglioblastoma Cells. [Related pubchem assays: 1827 (Project Summary), 1813 (Primary HTS)]; type: functional
Melanocortin receptor 4 [11] = biological target: T2, Melanocortin receptor 4; type: functional, cell-based
[12] = biological target: T4, Ubiquitin-conjugating enzyme E2 N (Homo sapiens, UniProt P61088); type: functional;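 note: Dose-response confirmation in a TR-FRET assay detecting UBC13-driven polyubiquitin chain formation, inhibition measured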
T4 sequence (P61088 whole entry): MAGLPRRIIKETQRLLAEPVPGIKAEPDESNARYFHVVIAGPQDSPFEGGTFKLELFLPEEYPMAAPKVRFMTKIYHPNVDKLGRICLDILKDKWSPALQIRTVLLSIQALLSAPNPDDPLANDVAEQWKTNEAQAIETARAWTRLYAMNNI

[13] = viability of HCT116 lacking mutant beta-catenin – cell-based, human colon tumor, dose response (AID 1045); type: functional;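 note: HCT116 colon tumor cells with beta catenin knocked out; cells exposed to compound for 60 hours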
[14] = alpha-synuclein stem-loop luciferase translation blockers – H4 neuroglioma cells, luminescence, confirmation (AID 1988); type: functional, cell-based
[15] = microbe, parasite or virus in culture; type: functional; conditions: Mycobacterium tuberculosis
[16] = viability of PTEN-deleted HCT116 cells – cell-based, HCT116 PTEN knockout, dose response (AID 1047); type: functional;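 note: HCT116 colon tumor cells with PTEN knocked out; cells exposed to compound for 60 hours before readout; potency for loss of cell viability measured by luminescence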
[17] = biological target: T5, Sentrin-specific protease 6 (Homo sapiens, UniProt Q9GZR1); experiment: SAR Analysis of small molecule inhibitors of Sentrin-specific protease 6 (SENP6) using a Luminescent assay. [Related pubchem assays (depositor defined):AID2582, AID2599]; type: functional
T5 sequence (Q9GZR1 whole entry): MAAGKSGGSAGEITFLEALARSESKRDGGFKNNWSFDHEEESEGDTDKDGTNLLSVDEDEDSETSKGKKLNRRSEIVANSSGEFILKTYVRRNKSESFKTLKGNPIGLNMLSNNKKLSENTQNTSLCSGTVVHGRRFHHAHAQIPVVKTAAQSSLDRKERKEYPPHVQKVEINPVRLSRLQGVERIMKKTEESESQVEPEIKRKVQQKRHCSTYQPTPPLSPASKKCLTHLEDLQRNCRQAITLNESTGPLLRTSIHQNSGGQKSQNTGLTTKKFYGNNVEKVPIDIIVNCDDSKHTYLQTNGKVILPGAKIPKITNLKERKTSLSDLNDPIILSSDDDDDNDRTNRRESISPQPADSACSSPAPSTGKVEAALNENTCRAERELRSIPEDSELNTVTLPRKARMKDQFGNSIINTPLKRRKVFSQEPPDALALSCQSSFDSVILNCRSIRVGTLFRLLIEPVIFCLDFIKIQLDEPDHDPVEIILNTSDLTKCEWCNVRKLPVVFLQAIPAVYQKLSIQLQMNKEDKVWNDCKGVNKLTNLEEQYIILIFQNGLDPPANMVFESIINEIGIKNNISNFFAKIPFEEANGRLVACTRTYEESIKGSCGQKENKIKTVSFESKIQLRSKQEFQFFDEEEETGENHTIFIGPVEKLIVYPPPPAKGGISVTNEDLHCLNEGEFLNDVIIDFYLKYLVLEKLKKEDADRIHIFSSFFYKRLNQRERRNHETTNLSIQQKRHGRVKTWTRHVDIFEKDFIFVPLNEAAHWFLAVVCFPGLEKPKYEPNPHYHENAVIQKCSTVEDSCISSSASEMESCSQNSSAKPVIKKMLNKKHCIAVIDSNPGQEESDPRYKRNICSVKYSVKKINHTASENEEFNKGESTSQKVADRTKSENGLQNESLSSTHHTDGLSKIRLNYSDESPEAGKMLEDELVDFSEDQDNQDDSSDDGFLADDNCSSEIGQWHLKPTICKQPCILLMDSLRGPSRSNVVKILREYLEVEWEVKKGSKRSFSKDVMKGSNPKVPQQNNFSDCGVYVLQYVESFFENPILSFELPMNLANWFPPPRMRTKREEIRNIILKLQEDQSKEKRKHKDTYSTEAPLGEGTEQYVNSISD

[18] = biological target: T6, Sentrin-specific protease 7 (Homo sapiens, UniProt Q9BQF6); experiment: inhibition of human SENP7 cleavage activity – biochemical, luminescence, SAR follow-up (AID 504497); type: functional
T6 sequence (Q9BQF6 whole entry): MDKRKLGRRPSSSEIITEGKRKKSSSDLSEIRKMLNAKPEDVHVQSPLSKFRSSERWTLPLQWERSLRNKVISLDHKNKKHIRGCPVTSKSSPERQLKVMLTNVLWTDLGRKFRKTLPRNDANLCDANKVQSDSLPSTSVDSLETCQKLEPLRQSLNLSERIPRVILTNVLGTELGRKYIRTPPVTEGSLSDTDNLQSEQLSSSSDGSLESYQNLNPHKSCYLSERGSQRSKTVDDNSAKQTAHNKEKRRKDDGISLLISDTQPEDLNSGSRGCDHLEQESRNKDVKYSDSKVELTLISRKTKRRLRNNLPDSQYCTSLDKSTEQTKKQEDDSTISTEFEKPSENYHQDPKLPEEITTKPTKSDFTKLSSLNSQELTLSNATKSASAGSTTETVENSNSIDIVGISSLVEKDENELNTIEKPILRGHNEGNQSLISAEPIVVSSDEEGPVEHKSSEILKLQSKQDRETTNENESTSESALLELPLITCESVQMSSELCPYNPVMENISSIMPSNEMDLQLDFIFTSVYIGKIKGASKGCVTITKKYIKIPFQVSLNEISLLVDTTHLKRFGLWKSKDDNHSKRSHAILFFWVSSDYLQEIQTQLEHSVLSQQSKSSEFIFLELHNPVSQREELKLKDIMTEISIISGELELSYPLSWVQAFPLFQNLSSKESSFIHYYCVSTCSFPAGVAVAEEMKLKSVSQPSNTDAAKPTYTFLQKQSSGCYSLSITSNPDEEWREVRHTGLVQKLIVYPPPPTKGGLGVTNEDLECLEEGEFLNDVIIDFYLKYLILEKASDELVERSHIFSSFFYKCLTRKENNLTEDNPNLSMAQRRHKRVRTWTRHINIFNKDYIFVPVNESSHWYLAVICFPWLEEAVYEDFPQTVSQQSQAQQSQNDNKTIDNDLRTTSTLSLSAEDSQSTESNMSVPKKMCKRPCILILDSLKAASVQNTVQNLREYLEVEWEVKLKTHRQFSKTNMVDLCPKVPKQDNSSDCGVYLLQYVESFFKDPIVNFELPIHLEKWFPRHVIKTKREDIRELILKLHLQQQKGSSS

Caspase-3 = biological target: T7, Caspase-3 (Homo sapiens, UniProt P42574); experiment: SAR Analysis of small molecule inhibitors of Sentrin-specific proteases (SENPs) using a Caspase-3 Selectivity assay. [Related pubchem assays (depositor defined):AID2540, AID2599, AID434973, AID489001]; type: functional
T7 sequence (P42574 whole entry): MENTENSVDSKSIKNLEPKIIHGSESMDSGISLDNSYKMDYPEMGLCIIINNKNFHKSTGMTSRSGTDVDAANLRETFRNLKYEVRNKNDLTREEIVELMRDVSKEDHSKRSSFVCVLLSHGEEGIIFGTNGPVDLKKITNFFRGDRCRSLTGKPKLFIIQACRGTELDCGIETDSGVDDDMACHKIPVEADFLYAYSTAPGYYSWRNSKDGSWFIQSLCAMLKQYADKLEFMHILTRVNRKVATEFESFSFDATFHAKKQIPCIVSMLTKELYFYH

[19] = biological target: T8, Sentrin-specific protease 8 (Homo sapiens, UniProt Q96LD8); experiment: inhibition of human SENP8 cleavage activity – biochemical, luminescence, SAR follow-up (AID 504501); type: functional
T8 sequence (Q96LD8 whole entry): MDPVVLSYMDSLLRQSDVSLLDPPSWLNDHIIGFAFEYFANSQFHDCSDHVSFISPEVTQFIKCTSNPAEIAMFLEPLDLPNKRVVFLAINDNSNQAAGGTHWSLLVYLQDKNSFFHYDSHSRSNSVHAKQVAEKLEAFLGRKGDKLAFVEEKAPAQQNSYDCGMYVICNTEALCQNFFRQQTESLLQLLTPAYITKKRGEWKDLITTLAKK

CCCCCC1CCC(c2nnc(S)n2C)CC1 (centres undefined)
IC50 [1]: > 40 µM (not active) | EC50 [2]: > 60 µM (not active) | EC50 (Beta-galactosidase): > 40 µM (inactive) | EC50 [3]: > 150 µM (inactive) | EC50 [4]: > 38 µM (not active) | EC50 [5]: 1.92 µM (active)

CC1CCCN(c2nc(-c3cccnc3)nc3scc(-c4ccccc4)c23)C1 (centres undefined)
IC50 (Melanocortin receptor 4 [6]): > 64.6 µM (inactive) | IC50 [7]: > 64.6 µM (inactive)

O=C(c1ccccc1)c1cnc(-c2ccccc2)s1
IC50 (HEK293): > 67.6 µM (inactive) | IC50 [8]: > 67.6 µM (inactive)

COc1ccc(-c2nc3ncccn3c2Br)cc1
CC50 [9]: 39.3 µM (active) | IC50 (HEK293): > 67.6 µM (inactive) | IC50 [8]: > 67.6 µM (inactive)

COc1ccccc1NC(=O)CCC(=O)OCC(=O)c1ccc(C)c([N+](=O)[O-])c1
IC50 [1]: 33.7 µM (not active) | EC50 (Beta-galactosidase): > 40 µM (inactive)

Brc1ccc(-c2csc(N3CCOCC3)n2)cc1
IC50 (HEK293): > 67.5 µM (inactive) | IC50 [8]: > 67.5 µM (inactive)

COC(=O)c1ccc(C2c3[nH]c4ccccc4c3C[C@H]3C(=O)N(C4CCN(Cc5ccccc5)CC4)CC(=O)N23)cc1 (some centres undefined)
IC50 (Melanocortin receptor 4 [6]): > 64.6 µM (inactive) | IC50 [7]: > 64.6 µM (inactive)

O=C(Cc1ccccc1)NCC(=O)OCC(=O)c1ccc(Cl)c([N+](=O)[O-])c1
IC50 [1]: 9.37 µM (active) | EC50 (Beta-galactosidase): > 40 µM (inactive)

CN(C)CCCNC(=O)c1ccc(-c2nc(-c3ccc(Cl)cc3)cs2)cc1
EC50 [10]: > 120 µM (not active) | IC50 [1]: 22.6 µM (not active) | EC50 (Melanocortin receptor 4 [11]): > 9.91 µM (active) | IC50 [12]: > 20 µM (inactive) | EC50 [2]: 10.2 µM (active) | EC50 (Beta-galactosidase): > 40 µM (inactive) | EC50 [3]: 44.4 µM (inconclusive) | EC50 [13]: 2.25 µM (active) | EC50 [4]: 3.33 µM (active) | EC50 [14]: 9.67 µM (inconclusive) | EC50 [5]: 0.738 µM (active) | CC50 [15]: 4.08 µM (active) | EC50 [16]: 2.41 µM (active)

NC(=O)CSc1nnc(-c2ccc(O)cc2)n1Cc1ccco1
IC50 (HEK293): > 67.6 µM (inactive) | IC50 [8]: > 67.6 µM (inactive)

Cc1cc(Cl)ccc1NC(=O)c1ccc2c(c1)OCO2
IC50 [17]: > 99 µM (inactive) | IC50 [18]: 34.6 µM (active) | IC50 (Caspase-3): 28.1 µM (active) | IC50 [19]: > 99 µM (inactive)

Oc1nnc(/C=C/c2ccc(F)cc2)o1
IC50 [17]: > 99 µM (inactive) | IC50 [18]: > 99 µM (inactive) | IC50 (Caspase-3): > 99 µM (inactive) | IC50 [19]: > 99 µM (inactive)
